From patent US12227500B2, “Substituted pyrrolo[2,3-b]pyridines for suppressing toxic endoplasmic reticulum stress” (THE TRUSTEES OF COLUMBIA UNIVERSITY IN THE CITY OF NEW YORK, priority 2018, dated 2025)

Experiments:
Assay in all cases: Radiolabeled ATP kinase assay, panel of 371 kinases (Table S6)
Type in all cases: biochemical
[1] = molecular target: T1, panel of 371 human kinases (Homo sapiens, UniProt Q16566); conditions: CAMK4; 0.1 μM; 10 μM ATP; read-out: % Enzyme Activity (relative to DMSO controls)
T1 construct: purchased Reaction Biology Corp
From the text: (§1) ; FIG. 38C). […]. Further targeted analyses, such as genetic knock-down or knock-out, may be warranted to parse the role of these additional kinases in our model of neurodegeneration.

[2] = molecular target: T2, panel of 371 human kinases (Homo sapiens, UniProt P53350); conditions: PLK1; 0.1 μM; 10 μM ATP; read-out: % Enzyme Activity (relative to DMSO controls)
T2 construct: purchased Reaction Biology Corp
From the text: as §1

[3] = molecular target: T3, panel of 371 human kinases (Homo sapiens, UniProt Q8NE63); conditions: HIPK4; 0.1 μM; 10 μM ATP; read-out: % Enzyme Activity (relative to DMSO controls)
T3 construct: purchased Reaction Biology Corp
From the text: as §1

[4] = molecular target: T4, panel of 371 human kinases (Homo sapiens, UniProt Q15418); conditions: RSK1; 0.1 μM; 10 μM ATP; read-out: % Enzyme Activity (relative to DMSO controls)
T4 construct: purchased Reaction Biology Corp
From the text: as §1

[5] = molecular target: T5, panel of 371 human kinases (Homo sapiens, UniProt O15146); conditions: MUSK; 0.1 μM; 10 μM ATP; read-out: % Enzyme Activity (relative to DMSO controls)
T5 construct: purchased Reaction Biology Corp
From the text: as §1

[6] = molecular target: T6, panel of 371 human kinases (Homo sapiens, UniProt Q9H1R3); conditions: MLCK2/MYLK2; 0.1 μM; 10 μM ATP; read-out: % Enzyme Activity (relative to DMSO controls)
T6 construct: purchased Reaction Biology Corp
From the text: as §1

[7] = molecular target: T7, panel of 371 human kinases (Homo sapiens, UniProt Q13188); conditions: MST2/STK3; 0.1 μM; 10 μM ATP; read-out: % Enzyme Activity (relative to DMSO controls)
T7 construct: purchased Reaction Biology Corp
From the text: as §1

[8] = molecular target: T8, panel of 371 human kinases (Homo sapiens, UniProt Q8NG66); conditions: NEK11; 0.1 μM; 10 μM ATP; read-out: % Enzyme Activity (relative to DMSO controls)
T8 construct: purchased Reaction Biology Corp
From the text: as §1

[9] = molecular target: T9, panel of 371 human kinases (Homo sapiens, UniProt Q13043); conditions: MST1/STK4; 0.1 μM; 10 μM ATP; read-out: % Enzyme Activity (relative to DMSO controls)
T9 construct: purchased Reaction Biology Corp
From the text: as §1

[10] = molecular target: T10, panel of 371 human kinases (Homo sapiens, UniProt Q9Y3S1); conditions: WNK2; 0.1 μM; 10 μM ATP; read-out: % Enzyme Activity (relative to DMSO controls)
T10 construct: purchased Reaction Biology Corp
From the text: as §1

[11] = molecular target: T11, panel of 371 human kinases (Homo sapiens, UniProt P22607); conditions: FGFR3; 0.1 μM; 10 μM ATP; read-out: % Enzyme Activity (relative to DMSO controls)
T11 construct: purchased Reaction Biology Corp
From the text: as §1

[12] = molecular target: T12, panel of 371 human kinases (Homo sapiens, UniProt Q96KB5); conditions: PBK/TOPK; 0.1 μM; 10 μM ATP; read-out: % Enzyme Activity (relative to DMSO controls)
T12 construct: purchased Reaction Biology Corp
From the text: as §1

[13] = molecular target: T13, panel of 371 human kinases (Homo sapiens, UniProt Q6DT37); conditions: DMPK2; 0.1 μM; 10 μM ATP; read-out: % Enzyme Activity (relative to DMSO controls)
T13 construct: purchased Reaction Biology Corp
From the text: as §1

[14] = molecular target: T14, panel of 371 human kinases (Homo sapiens, UniProt Q15139); conditions: PKCmu/PRKD1; 0.1 μM; 10 μM ATP; read-out: % Enzyme Activity (relative to DMSO controls)
T14 construct: purchased Reaction Biology Corp
From the text: as §1

[15] = molecular target: T15, panel of 371 human kinases (Homo sapiens, UniProt O95835); conditions: LATS1; 0.1 μM; 10 μM ATP; read-out: % Enzyme Activity (relative to DMSO controls)
T15 construct: purchased Reaction Biology Corp
From the text: as §1

[16] = molecular target: T16, panel of 371 human kinases (Homo sapiens, UniProt Q9BWU1); conditions: CDK19/cyclin C; 0.1 μM; 10 μM ATP; read-out: % Enzyme Activity (relative to DMSO controls)
T16 construct: purchased Reaction Biology Corp
From the text: as §1

[17] = molecular target: T17, panel of 371 human kinases (Homo sapiens, UniProt P07947); conditions: YES/YES1; 0.1 μM; 10 μM ATP; read-out: % Enzyme Activity (relative to DMSO controls)
T17 construct: purchased Reaction Biology Corp
From the text: as §1

[18] = molecular target: T18, panel of 371 human kinases (Homo sapiens, UniProt Q9UKI8); conditions: TLK1; 0.1 μM; 10 μM ATP; read-out: % Enzyme Activity (relative to DMSO controls)
T18 construct: purchased Reaction Biology Corp
From the text: as §1

[19] = molecular target: T19, panel of 371 human kinases (Homo sapiens, UniProt Q8N4C8); conditions: for remaining activity at 0.1 µM: MINK/MINK1, 10 μM ATP, read-out: % Enzyme Activity (relative to DMSO controls)
T19 construct: purchased Reaction Biology Corp
From the text: as §1

[20] = molecular target: T20, panel of 371 human kinases (Homo sapiens, UniProt Q9Y6E0); conditions: MST3/STK24; 0.1 μM; 10 μM ATP; read-out: % Enzyme Activity (relative to DMSO controls)
T20 construct: purchased Reaction Biology Corp
From the text: as §1

[21] = molecular target: T21, panel of 371 human kinases (Homo sapiens, UniProt Q9P289); conditions: MST4; 0.1 μM; 10 μM ATP; read-out: % Enzyme Activity (relative to DMSO controls)
T21 construct: purchased Reaction Biology Corp
From the text: as §1

[22] = molecular target: T22, panel of 371 human kinases (Homo sapiens, UniProt Q02763); conditions: TIE2/TEK; 0.1 μM; 10 μM ATP; read-out: % Enzyme Activity (relative to DMSO controls)
T22 construct: purchased Reaction Biology Corp
From the text: as §1

[23] = molecular target: T23, panel of 371 human kinases (Homo sapiens, UniProt P37023); conditions: ALK1/ACVRL1; 0.1 μM; 10 μM ATP; read-out: % Enzyme Activity (relative to DMSO controls)
T23 construct: purchased Reaction Biology Corp
From the text: as §1

[24] = molecular target: T24, panel of 371 human kinases (Homo sapiens, UniProt P24723); conditions: PKCeta; 0.1 μM; 10 μM ATP; read-out: % Enzyme Activity (relative to DMSO controls)
T24 construct: purchased Reaction Biology Corp
From the text: as §1

T19 sequence (Q8N4C8 whole entry): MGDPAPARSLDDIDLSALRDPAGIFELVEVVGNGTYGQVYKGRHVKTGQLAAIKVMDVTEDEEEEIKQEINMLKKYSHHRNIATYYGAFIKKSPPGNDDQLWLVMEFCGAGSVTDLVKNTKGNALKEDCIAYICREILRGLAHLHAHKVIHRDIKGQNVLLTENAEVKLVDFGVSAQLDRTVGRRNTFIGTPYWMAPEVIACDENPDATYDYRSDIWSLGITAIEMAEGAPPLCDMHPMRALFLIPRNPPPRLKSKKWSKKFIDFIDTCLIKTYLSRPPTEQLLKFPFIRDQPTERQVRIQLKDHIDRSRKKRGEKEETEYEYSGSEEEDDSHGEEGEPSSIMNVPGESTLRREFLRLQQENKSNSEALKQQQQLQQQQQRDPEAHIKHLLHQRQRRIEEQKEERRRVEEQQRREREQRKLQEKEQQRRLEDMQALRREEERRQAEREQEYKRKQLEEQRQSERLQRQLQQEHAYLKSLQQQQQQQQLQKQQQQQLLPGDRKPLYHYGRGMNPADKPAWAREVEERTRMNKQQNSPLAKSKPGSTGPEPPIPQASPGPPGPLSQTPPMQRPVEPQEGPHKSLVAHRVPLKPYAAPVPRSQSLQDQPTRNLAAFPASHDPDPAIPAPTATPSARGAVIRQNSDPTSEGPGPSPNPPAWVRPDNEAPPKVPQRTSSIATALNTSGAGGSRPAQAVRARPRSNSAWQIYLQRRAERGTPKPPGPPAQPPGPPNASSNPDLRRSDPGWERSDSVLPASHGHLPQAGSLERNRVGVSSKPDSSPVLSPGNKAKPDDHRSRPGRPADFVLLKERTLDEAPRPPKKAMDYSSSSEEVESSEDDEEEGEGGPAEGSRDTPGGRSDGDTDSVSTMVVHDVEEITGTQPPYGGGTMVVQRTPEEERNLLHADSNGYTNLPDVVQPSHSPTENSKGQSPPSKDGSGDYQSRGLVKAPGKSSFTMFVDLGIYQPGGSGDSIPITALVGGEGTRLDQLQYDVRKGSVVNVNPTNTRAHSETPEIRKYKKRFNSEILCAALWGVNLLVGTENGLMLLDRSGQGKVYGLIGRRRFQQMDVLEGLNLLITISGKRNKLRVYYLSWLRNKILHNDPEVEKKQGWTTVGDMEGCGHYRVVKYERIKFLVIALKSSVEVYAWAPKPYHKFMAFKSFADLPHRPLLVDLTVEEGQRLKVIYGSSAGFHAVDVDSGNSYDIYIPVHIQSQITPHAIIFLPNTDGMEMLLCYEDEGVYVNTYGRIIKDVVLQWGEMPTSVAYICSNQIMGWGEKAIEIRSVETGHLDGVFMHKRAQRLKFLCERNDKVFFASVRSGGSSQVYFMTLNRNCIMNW
T10 sequence (Q9Y3S1 whole entry): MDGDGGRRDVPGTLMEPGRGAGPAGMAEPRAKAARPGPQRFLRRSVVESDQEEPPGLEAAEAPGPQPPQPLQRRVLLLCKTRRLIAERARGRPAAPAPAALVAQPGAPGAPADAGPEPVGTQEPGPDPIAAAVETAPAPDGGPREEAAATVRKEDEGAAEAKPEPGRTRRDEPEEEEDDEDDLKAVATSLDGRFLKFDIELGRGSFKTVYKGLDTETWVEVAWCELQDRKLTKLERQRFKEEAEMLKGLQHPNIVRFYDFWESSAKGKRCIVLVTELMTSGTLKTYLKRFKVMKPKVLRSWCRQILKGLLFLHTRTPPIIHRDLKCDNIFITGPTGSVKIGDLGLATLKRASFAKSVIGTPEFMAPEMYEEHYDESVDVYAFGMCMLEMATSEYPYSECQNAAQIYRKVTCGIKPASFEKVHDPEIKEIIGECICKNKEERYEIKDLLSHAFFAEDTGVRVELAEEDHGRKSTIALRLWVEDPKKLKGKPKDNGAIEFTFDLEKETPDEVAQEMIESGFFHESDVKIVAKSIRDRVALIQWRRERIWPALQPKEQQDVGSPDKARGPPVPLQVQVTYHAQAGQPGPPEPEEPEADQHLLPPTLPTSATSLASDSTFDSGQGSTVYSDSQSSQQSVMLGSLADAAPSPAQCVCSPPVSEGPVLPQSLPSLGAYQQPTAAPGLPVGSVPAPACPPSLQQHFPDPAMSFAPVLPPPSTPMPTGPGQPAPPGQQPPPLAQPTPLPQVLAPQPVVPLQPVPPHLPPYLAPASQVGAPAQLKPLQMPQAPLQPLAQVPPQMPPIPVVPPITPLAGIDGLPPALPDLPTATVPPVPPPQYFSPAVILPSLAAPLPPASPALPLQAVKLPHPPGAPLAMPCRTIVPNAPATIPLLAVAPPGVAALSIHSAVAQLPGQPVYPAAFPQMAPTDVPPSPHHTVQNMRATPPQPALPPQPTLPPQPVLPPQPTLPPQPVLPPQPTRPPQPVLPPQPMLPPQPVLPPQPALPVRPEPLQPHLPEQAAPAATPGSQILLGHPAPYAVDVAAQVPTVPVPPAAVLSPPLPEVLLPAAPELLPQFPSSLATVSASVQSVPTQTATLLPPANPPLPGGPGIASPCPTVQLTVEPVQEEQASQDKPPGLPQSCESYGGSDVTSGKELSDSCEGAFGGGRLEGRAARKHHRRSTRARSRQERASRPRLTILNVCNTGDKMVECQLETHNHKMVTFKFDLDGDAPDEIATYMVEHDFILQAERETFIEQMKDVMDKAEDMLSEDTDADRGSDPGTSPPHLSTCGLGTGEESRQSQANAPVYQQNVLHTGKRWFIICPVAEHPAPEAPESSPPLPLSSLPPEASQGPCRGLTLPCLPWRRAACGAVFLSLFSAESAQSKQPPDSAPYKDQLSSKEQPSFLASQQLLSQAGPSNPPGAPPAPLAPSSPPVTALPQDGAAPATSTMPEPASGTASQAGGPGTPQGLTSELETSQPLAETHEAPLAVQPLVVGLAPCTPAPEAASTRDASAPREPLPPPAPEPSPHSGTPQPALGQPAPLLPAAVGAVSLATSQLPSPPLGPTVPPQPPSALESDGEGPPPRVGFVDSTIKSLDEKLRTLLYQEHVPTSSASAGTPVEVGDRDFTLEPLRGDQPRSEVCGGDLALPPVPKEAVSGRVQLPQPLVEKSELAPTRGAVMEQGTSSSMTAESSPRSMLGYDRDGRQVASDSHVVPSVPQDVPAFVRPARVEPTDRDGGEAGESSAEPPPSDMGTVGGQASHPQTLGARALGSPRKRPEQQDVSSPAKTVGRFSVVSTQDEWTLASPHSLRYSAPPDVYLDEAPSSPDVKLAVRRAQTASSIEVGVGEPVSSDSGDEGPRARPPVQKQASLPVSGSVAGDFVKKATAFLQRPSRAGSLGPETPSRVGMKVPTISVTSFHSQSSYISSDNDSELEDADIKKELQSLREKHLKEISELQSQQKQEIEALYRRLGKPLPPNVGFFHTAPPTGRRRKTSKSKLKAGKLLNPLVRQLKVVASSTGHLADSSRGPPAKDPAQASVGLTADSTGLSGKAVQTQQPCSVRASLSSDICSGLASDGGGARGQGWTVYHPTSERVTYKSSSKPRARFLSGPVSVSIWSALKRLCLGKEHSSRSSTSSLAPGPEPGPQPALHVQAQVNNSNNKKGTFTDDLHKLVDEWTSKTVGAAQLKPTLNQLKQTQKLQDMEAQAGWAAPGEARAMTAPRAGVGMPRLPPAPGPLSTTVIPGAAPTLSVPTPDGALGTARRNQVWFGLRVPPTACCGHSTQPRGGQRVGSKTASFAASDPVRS
T12 sequence (Q96KB5 whole entry): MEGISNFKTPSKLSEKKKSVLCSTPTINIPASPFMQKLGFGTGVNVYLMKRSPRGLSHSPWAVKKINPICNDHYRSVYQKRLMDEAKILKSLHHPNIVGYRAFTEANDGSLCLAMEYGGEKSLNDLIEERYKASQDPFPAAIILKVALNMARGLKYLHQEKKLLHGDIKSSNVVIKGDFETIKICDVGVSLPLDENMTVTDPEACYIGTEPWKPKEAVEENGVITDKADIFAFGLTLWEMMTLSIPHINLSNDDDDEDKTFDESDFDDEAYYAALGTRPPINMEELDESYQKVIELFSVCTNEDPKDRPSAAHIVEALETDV
T3 sequence (Q8NE63 whole entry): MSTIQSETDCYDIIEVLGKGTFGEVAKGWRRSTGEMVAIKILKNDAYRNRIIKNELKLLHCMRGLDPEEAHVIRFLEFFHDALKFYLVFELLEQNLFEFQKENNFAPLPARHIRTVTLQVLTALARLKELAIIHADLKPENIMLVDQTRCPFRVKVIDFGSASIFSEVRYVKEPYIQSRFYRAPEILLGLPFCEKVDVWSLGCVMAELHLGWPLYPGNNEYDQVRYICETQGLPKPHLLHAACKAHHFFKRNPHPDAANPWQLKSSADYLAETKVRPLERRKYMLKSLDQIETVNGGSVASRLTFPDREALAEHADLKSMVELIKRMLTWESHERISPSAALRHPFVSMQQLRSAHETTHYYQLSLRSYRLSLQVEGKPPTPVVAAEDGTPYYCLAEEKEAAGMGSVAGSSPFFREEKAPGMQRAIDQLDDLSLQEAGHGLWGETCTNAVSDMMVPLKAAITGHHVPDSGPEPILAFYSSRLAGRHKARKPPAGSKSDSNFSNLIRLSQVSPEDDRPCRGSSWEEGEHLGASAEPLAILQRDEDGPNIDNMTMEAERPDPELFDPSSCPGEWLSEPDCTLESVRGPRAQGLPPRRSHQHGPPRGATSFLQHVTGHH
T1 sequence (Q16566 whole entry): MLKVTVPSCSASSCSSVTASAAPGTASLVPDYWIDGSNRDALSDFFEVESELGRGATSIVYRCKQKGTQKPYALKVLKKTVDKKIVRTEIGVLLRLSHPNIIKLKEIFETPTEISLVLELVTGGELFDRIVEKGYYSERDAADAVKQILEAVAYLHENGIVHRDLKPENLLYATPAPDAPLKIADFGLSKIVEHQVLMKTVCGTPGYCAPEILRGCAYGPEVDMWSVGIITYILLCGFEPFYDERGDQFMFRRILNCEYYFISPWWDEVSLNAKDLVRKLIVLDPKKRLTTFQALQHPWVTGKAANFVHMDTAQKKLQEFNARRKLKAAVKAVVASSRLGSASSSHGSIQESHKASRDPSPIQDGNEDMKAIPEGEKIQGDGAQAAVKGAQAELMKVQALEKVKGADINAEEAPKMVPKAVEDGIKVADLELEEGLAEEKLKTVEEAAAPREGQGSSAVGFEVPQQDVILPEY

With OCCN1CCN(Cc2ccc(-c3cnc4[nH]cc(-c5cccc(Cl)c5)c4c3)cc2)CC1 [Compound 12k, 2-(4-(4-(3-(3-Chlorophenyl)-1H-pyrrolo[2,3-b]pyridin-5-yl)benzyl)piperazin-1-yl)ethan-1-ol] the remaining activity at 0.1 µM [1] was 100%, the remaining activity at 0.1 µM [2] was 100% and the remaining activity at 0.1 µM [3] was 105%. The remaining activity at 0.1 µM [4] was 90%, the remaining activity at 0.1 µM [5] was 86.7% and the remaining activity at 0.1 µM [6] was 78.9%. The remaining activity at 0.1 µM [7] was 86%, the remaining activity at 0.1 µM [8] was 101% and the remaining activity at 0.1 µM [9] was 75.9%. The remaining activity at 0.1 µM [10] was 94.8%, the remaining activity at 0.1 µM [11] was 80.9% and the remaining activity at 0.1 µM [12] was 97.1%. The remaining activity at 0.1 µM [13] was 61.3%, the remaining activity at 0.1 µM [14] was 3.95% and the remaining activity at 0.1 µM [15] was 84.4%. For the same molecule, the remaining activity at 0.1 µM [16] was 64.8%, the remaining activity at 0.1 µM [17] was 109% and the remaining activity at 0.1 µM [18] was 102%. The “fold change in MINK1 activity following 12k exposure relative to 1” value ([19]; 0.025 μM) was 22.56 fold, the remaining activity at 0.1 µM [19] was -0.71% and the remaining activity at 0.1 µM [20] was 78.4%. It also gave a remaining activity at 0.1 µM [21] of 73.2%, a remaining activity at 0.1 µM [22] of 103% and a remaining activity at 0.1 µM [23] of 100%. For the same molecule, the remaining activity at 0.1 µM [24] was 94.6%.

Molecule CN1CCN(Cc2ccc(-c3cnc4[nH]cc(-c5ccc6[nH]ccc6c5)c4c3)cc2)CC1 [Compound 1, 3-(1H-Indol-5-yl)-5-(4-((4-methylpiperazin-1-yl)methyl)phenyl)-1H-pyrrolo[2,3-b]pyridine, reference compound] has a remaining activity at 0.1 µM [1] of 95.1%, a remaining activity at 0.1 µM [2] of 98.6% and a remaining activity at 0.1 µM [3] of 107%. It also gave a remaining activity at 0.1 µM [4] of 85.4%, a remaining activity at 0.1 µM [5] of 101% and a remaining activity at 0.1 µM [6] of 66%. For the same molecule, the remaining activity at 0.1 µM [7] was 102%, the remaining activity at 0.1 µM [8] was 107% and the remaining activity at 0.1 µM [9] was 80%. The remaining activity at 0.1 µM [10] was 93%, the remaining activity at 0.1 µM [11] was 76.7% and the remaining activity at 0.1 µM [12] was 96.8%. For the same molecule, the remaining activity at 0.1 µM [13] was 76.8%, the remaining activity at 0.1 µM [14] was 24.4% and the remaining activity at 0.1 µM [15] was 83.6%. For the same molecule, the remaining activity at 0.1 µM [16] was 94.9%, the remaining activity at 0.1 µM [17] was 96.6% and the remaining activity at 0.1 µM [18] was 102%. It also gave a remaining activity at 0.1 µM [19] of 22.6%, a remaining activity at 0.1 µM [20] of 71.2% and a remaining activity at 0.1 µM [21] of 73%. The remaining activity at 0.1 µM [22] was 95%, the remaining activity at 0.1 µM [23] was 106% and the remaining activity at 0.1 µM [24] was 103%.
